# Residues, ends and D or L forms follow the SMILES beside them. *: point of attachment. AMC = Cc1cc(=O)oc2cc(N*)ccc12; Cbz = O=C(OCc1ccccc1)*
# T1: papain (Carica papaya, UniProt P00784)
# T1 sequence (P00784 134-345): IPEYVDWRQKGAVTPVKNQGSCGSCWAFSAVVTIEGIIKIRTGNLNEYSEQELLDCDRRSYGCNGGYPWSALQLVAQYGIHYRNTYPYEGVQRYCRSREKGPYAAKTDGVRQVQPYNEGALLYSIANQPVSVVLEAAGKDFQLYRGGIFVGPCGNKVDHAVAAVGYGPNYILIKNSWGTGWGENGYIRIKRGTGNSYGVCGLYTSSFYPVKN
# T2: latent papain (Carica papaya, UniProt P00784)
# T2 construct: purchased Sigma Aldrich (Munich, Germany); host or cells: Papaya latex (natural source)
# T2 sequence (P00784 134-345): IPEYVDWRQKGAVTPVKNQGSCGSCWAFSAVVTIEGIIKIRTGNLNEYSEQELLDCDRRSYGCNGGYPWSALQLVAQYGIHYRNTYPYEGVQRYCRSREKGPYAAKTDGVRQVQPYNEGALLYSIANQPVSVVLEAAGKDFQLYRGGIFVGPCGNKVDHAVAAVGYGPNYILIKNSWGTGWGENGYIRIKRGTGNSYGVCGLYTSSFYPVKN
# T3: latent papain P13 (Carica papaya, UniProt P00784)
# T3 construct: purchased Sigma Aldrich (Munich, Germany); host or cells: Papaya latex (natural source)
# T3 sequence (P00784 134-345): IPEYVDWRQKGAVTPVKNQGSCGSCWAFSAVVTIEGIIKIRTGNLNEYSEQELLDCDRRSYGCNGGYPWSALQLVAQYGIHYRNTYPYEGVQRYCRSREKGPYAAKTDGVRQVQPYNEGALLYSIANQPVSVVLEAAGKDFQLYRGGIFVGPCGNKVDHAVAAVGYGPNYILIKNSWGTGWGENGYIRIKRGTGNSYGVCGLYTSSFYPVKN
# T4: H2N-CLR-CONH2
# T4 chain: CLR
# T5: dU-triazole-PEG3-ULR dimer (21) (not fully specified)
# T5 chain: ULR
# T6: H2N-CFR-CONH2
# T6 chain: CFR
# Tests used:
# papain [1] = target: T1, papain; details: literature (Whitesides group; Lukesh et al., 2012); cited from earlier work
# latent papain = target: T2, latent papain; test: Latent papain reactivation with selenium/thiol activators in presence of TCEP, rates normalized to blank (FIG. 22); type: biochemical; details: latent papain 1 nM
# Description: To this end, cysteine ethyl ester, DTT, DTBA (9) and SeDTBA (11) were chosen for a direct comparison. […] The resulting reaction rates were normalized against the background activity and the resulting normalized rates are presented in FIG. 22 for the concentration range of 50 pM-100 nM.
# Different assays of reactivating latent papain in solution were conducted in the course of this work. Various buffer compositions, supplements, 96 well plates, substrates, activators, concentrations as well as different latent papain forms were compared. In order to get an overview of all experiments, a standard method is described in the following and variations of this method are subsequently defined. First, the well buffer was prepared (0.1 M phosphate buffer pH 7, 4 mM EDTA, 0.01% Brij35). A 1 mM TCEP solution was prepared with 3 mM NaOH in 0.1 M Tris-HCl buffer pH 8. Papain substrate (Z-Phe-Arg-AMC or Suc-Leu-Leu-Val-Tyr-AMC) was prepared as a 200 μM solution in water and transferred equally to a PCR strip. Three serial dilutions of the activating agent with well buffer were used in the different experiments and the corresponding pipetting schemes are shown in Table 9. Papain was diluted to 0.1 μM with well buffer and transferred equally to a PCR strip. […] After mixing, 30 μL of the prepared activator concentrations (see Table 9) were added and mixed. In the last step, 3.8 μL of the substrate solution was added and mixed, to yield a final well composition of 0.1 M phosphate buffer pH 7, 1 nM papain, 2 μM substrate, activator (see Table 9), 4 mM EDTA, 0.01% Brij35 and 1 μM TCEP. For experiments with only one activator concentration of 10 μM, the transferred well buffer for each well was 368.6 μL, followed by 3.8 μL of papain, substrate and activator (1 mM in well buffer) respectively.
# latent papain P13 = target: T3, latent papain P13; test: Screening of peptide-based papain activators, rates normalized to cysteine ethyl ester (FIG. 19, FIG. 20); type: biochemical
# Description: L-Cysteine ethyl ester was utilized in identical peptide concentrations as a standard in order to calculate normalized reaction rates for each synthesized peptide.
# […] The assays were conducted in well buffer with 1 nM latent papain P13. In order to give a clear overview, only the normalized rates for activator concentrations of 50 nM are depicted and compared.
# Additionally, 1 μM TCEP was added to each well of the cysteine concentration series in order to examine the influence of TCEP on reaction rates of thiols.
# Different assays of reactivating latent papain in solution were conducted in the course of this work. Various buffer compositions, supplements, 96 well plates, substrates, activators, concentrations as well as different latent papain forms were compared. In order to get an overview of all experiments, a standard method is described in the following and variations of this method are subsequently defined. First, the well buffer was prepared (0.1 M phosphate buffer pH 7, 4 mM EDTA, 0.01% Brij35). A 1 mM TCEP solution was prepared with 3 mM NaOH in 0.1 M Tris-HCl buffer pH 8. Papain substrate (Z-Phe-Arg-AMC or Suc-Leu-Leu-Val-Tyr-AMC) was prepared as a 200 μM solution in water and transferred equally to a PCR strip. Three serial dilutions of the activating agent with well buffer were used in the different experiments and the corresponding pipetting schemes are shown in Table 9. Papain was diluted to 0.1 μM with well buffer and transferred equally to a PCR strip. […] 342.4 μL of TCEP containing well buffer was transferred to each well, followed by 3.8 μL papain solution. After mixing, 30 μL of the prepared activator concentrations (see Table 9) were added and mixed. In the last step, 3.8 μL of the substrate solution was added and mixed, to yield a final well composition of 0.1 M phosphate buffer pH 7, 1 nM papain, 2 μM substrate, activator (see Table 9), 4 mM EDTA, 0.01% Brij35 and 1 μM TCEP. For experiments with only one activator concentration of 10 μM, the transferred well buffer for each well was 368.6 μL, followed by 3.8 μL of papain, substrate and activator (1 mM in well buffer) respectively.
# [2] = Jacob et al., 2003; cited from earlier work
# papain [3] = target: T1, papain; details: Ménard et al. 1990; cited from earlier work
# [4] = Huber et al. 1967; cited from earlier work
# H2N-CLR-CONH2 = target: T4, H2N-CLR-CONH2
# [5] = target: T5, dU-triazole-PEG3-ULR dimer (21)
# H2N-CFR-CONH2 = target: T6, H2N-CFR-CONH2
# [6] = FIG. 20, concentration series 50 nM-10 μM
# [7] = concentration series 50 nM-10 μM, papain P13 1 nM (FIG. 20)
molecule,measurement,setting,value
"CN(C(=O)CS)N(C)C(=O)CS [DMH, N,N-dimethyl-N,N′-bis(mercaptoacetyl)hydrazine]",papain activation rate compared to DTT,papain [1],32 times
"CN(C)C(=O)[C@H](S)CC[C@H](S)C(=O)N(C)C [DTA, meso-2,5-dimercapto-N,N,N,N-tetramethyladipamide]",papain activation rate compared to DTT,papain [1],4.5 times
"N[C@H](CS)CCS [DTBA (9), dithiobutylamine]",papain activation rate compared to DTT,papain [1],14 times
same,rate relative to DTT,"latent papain; activator 50 nM, 1 μM TCEP",13.6 times
"CCOC(=O)[C@@H](N)CS.Cl [L-cysteine ethyl ester, L-Cysteine ethyl ester hydrochloride]",potency relative to (L-)cysteine,latent papain P13; [6],approximately 2.25 times
same,"activator efficiency (normalized rate/rate blank), in words","latent papain; 50 pM-100 nM activator, 1 μM TCEP (FIG. 22)",no substantial rate increase
N[C@@H](CS)C(=O)O [L-cysteine],redox potential E^0′,[2],−0.233 V
same,normalized rate compared to cysteine ethyl ester,latent papain P13; [7],around 40%
same,normalized rate compared to the tripeptide H2N-CLR-CONH2,latent papain P13; [7],around 25%
"Cc1cc(=O)oc2cc(NC(=O)[C@H](CCCNC(=N)N)NC(=O)[C@H](Cc3ccccc3)NC(=O)OCc3ccccc3)ccc12 [Z-Phe-Arg-AMC, Z-Phe-Arg 7-amido-4-methylcoumarin] (Cbz-Phe-Arg-{AMC})",Km,papain [3],420 µM
same,kcat,papain [3],52 s⁻¹
N[C@@H](C[SeH])C(=O)O [selenocysteine],pKa,[4],5.2
same,redox potential E^0′,[2],−0.488 V
same,"activator efficiency, in words",latent papain P13; [6],more potent activators compared to the tripeptide
same,rate relative to the tripeptide H2N-CLR-CONH2,"latent papain P13; concentration series 50 nM-10 μM (FIG. 20), selenocysteine prepared with TCEP",6.5 times
"latent papain, reversibly inactivated with S-methyl methanethiosulfonate (-S-S-CH3) (protein) IPEYVDWRQKGAVTPVKNQGSCGSCWAFSAVVTIEGIIKIRTGNLNEYSEQELLDCDRRSYGCNGGYPWSALQLVAQYGIHYRNTYPYEGVQRYCRSREKGPYAAKTDGVRQVQPYNEGALLYSIANQPVSVVLEAAGKDFQLYRGGIFVGPCGNKVDHAVAAVGYGPNYILIKNSWGTGWGENGYIRIKRGTGNSYGVCGLYTSSFYPVKN","normalized ratio rate/rate 10 uM cysteine of substrate hydrolysis after reactivation of latent papain (1 nM), activator 10 uM (fold of the rate with L-cysteine)",H2N-CLR-CONH2,2
same,normalized ratio rate/rate blank of substrate hydrolysis after reactivation of latent papain (1 nM) with activator 1-15 nM,[5],The normalized reaction rates for papain P20 now appeared the highest of all papain forms
same,"normalized ratio rate/rate 10 uM cysteine of substrate hydrolysis after reactivation of latent papain (1 nM), activator 10 uM (fold of the rate with L-cysteine)",H2N-CFR-CONH2,2

# Reference: patent publication US20260055441A1, “A PCR-ELISA ANALOGOUS ANTIBODY-FREE METHOD FOR DETECTING A TARGET NUCLEIC ACID IN A SAMPLE” (UNIVERSITÄT HEIDELBERG, priority 2022, published 2026)
